Results: ChEMBL document CHEMBL1144699 (Bioorg Med Chem, 2008)
pIC50: −log10 of the molar value. The source made the active and inactive calls. No cut-off for these calls is given here.

How the values were obtained:
[1] = Lipophilicity, log D at pH 7.4; type: physicochemical; settings: buffer
[2] = Metabolic stability in rat microsomes at 1 uM; type: ADME, Microsome; settings: read-out: Stability
[3] = biological target: Mitogen-activated protein kinase 8 (Rattus norvegicus, UniProt P49185); test: Inhibition of JNK1 in rat H9c2 cells assessed as inhibition of anisomycin-induced cJun phosphorylation after 30 mins; type: cell-based
[4] = Metabolic stability in human microsomes at 1 uM; type: ADME, Microsome; settings: read-out: Stability
[5] = biological target: Mitogen-activated protein kinase 8 (Homo sapiens, UniProt P45983); test: Inhibition of human JNK1 by radiometric assay
[6] = Tmax in Wistar rat at 3 mg/kg, po; type: ADME, organism-based; set-up: dose 3 mg/kg, route oral; settings: in vivo
Rattus norvegicus = test: Suppression of pressure-overload-induced cardiac hypertrophy in Wistar rat assessed as decrease in left ventricular weight to body weight ratio at 1 mg/kg, po once daily for 7 days; type: functional, organism-based; set-up: dose 1 mg/kg; settings: Heart left ventricle
[7] = Volume of distribution at steady state in Wistar rat at 0.3 mg/kg, iv; type: ADME, organism-based; set-up: dose 0.3 mg/kg, route intravenous; settings: in vivo, read-out: Vdss
[8] = Total clearance in Wistar rat at 0.3 mg/kg, iv; type: ADME, organism-based; set-up: dose 0.3 mg/kg, route intravenous; settings: in vivo
[9] = AUC in Wistar rat at 3 mg/kg, po; type: ADME, organism-based; set-up: dose 3 mg/kg, route oral; settings: plasma
[10] = AUC in Wistar rat at 0.3 mg/kg, iv; type: ADME, organism-based; set-up: dose 0.3 mg/kg, route intravenous; settings: plasma
[11] = Oral bioavailability in Wistar rat at 3 mg/kg; type: ADME, organism-based; settings: in vivo
[12] = Cmax in Wistar rat at 3 mg/kg, po; type: ADME, organism-based; set-up: dose 3 mg/kg, route oral; settings: in vivo

Sequence of Mitogen-activated protein kinase 8 (Rattus norvegicus, UniProt P49185) (P49185 whole entry): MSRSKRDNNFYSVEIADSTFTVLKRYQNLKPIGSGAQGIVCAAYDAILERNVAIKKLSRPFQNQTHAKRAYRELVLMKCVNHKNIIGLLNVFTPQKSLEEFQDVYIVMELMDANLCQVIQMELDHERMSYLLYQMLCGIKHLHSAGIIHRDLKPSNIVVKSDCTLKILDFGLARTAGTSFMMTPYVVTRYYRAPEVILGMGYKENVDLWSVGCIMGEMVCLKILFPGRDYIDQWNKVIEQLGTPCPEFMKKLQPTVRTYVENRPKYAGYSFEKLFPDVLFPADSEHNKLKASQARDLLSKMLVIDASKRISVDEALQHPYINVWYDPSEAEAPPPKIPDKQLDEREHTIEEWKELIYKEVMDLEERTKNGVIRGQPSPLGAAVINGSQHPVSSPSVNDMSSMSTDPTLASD
Sequence of Mitogen-activated protein kinase 8 (Homo sapiens, UniProt P45983) (P45983 whole entry): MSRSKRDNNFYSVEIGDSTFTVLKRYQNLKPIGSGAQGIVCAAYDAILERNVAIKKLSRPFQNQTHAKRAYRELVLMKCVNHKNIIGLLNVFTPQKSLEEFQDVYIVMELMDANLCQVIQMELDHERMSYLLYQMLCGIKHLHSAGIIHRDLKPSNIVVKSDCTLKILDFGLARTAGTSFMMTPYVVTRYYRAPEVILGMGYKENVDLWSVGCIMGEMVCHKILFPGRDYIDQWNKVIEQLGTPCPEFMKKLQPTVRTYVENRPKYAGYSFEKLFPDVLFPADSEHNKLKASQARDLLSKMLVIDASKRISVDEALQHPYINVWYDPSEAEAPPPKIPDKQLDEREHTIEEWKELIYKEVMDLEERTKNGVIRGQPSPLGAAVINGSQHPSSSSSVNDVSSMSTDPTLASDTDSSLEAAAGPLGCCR

| Compound | logD [1] | microsomal CLint at 1 µM [2] [µL/min/mg] | pIC50 [3] | microsomal CLint at 1 µM [4] [µL/min/mg] | pIC50 [5] | other results |
| --- | --- | --- | --- | --- | --- | --- |
| CCC(=O)c1c(-c2ccccc2)c2cc(Cl)ccc2c(=O)n1Cc1cc(S(C)(=O)=O)n(CCC(C)(C)O)n1 | 4.23 | 74 | 6.48 | 102 | 8.00 | – |
| COC(=O)c1c(-c2ccccc2)c2cc(Br)ccc2c(=O)n1Cc1ccc(S(C)(=O)=O)cc1 | – | – | 5.59 | – | – | – |
| CCC(=O)c1c(-c2ccccc2)c2cc(Cl)ccc2c(=O)n1Cc1cc(S(C)(=O)=O)n(CC(C)=O)n1 | 3.79 | 80 | 6.14 | 70 | 8.12 | – |
| CCNC(=O)n1cc(Cn2c(C(=O)CC)c(-c3ccccc3)c3cc(Cl)ccc3c2=O)cn1 | 4.45 | 60 | – | 43 | 7.37 | – |
| CCC(=O)c1c(-c2ccccc2)c2cc(Cl)ccc2c(=O)n1Cc1cc(C(=O)NC)n(C)n1 | 3.97 | 177 | 6.59 | 79 | 8.03 | – |
| CCC(=O)c1c(-c2ccccc2)c2cc(Cl)ccc2c(=O)n1Cc1ccc(C(=O)O)cc1 | – | – | 5.64 | – | – | – |
| CCC(=O)c1c(-c2ccccc2)c2cc(Cl)ccc2c(=O)n1Cc1cn(C(=O)NC)c(C)n1 | – | – | – | – | 8.17 | – |

The remaining molecules from weak to strong by pIC50 [5], led by results:

| logD [1] | microsomal CLint at 1 µM [2] [µL/min/mg] | pIC50 [3] | microsomal CLint at 1 µM [4] [µL/min/mg] | pIC50 [5] | Compound | other results |
| --- | --- | --- | --- | --- | --- | --- |
| 3.5 | 74 | – | 37 | 7.48 | CCC(=O)c1c(-c2ccccc2)c2cc(Cl)ccc2c(=O)n1Cc1cc(C(=O)NC)n[nH]1 | – |
| – | – | – | – | 7.55 | CCC(=O)c1c(-c2ccccc2)c2cc(Cl)ccc2c(=O)n1Cc1ccc(S(C)(=O)=O)cc1 | – |
| 4.08 | 110 | 6.17 | 35 | 7.96 | CCC(=O)c1c(-c2ccccc2)c2cc(Cl)ccc2c(=O)n1Cc1cc(C(N)=O)n(CC)n1 | – |
| 3.91 | 230 | – | 250 | 7.96 | CCC(=O)c1c(-c2ccccc2)c2cc(Cl)ccc2c(=O)n1Cc1cc(C(=O)N(C)C)n(C)n1 | – |
| 4.19 | 52 | 6.32 | 36 | 8.00 | CCC(=O)c1c(-c2ccccc2)c2cc(Cl)ccc2c(=O)n1Cc1cc(S(C)(=O)=O)n(CC(F)F)n1 | – |
| 4.66 | – | 5.94 | 14 | 8.00 | CCC(=O)c1c(-c2ccccc2)c2cc(Cl)ccc2c(=O)n1Cc1cc(C(=O)NC2CC2)n(CC(F)F)n1 | – |
| 4.51 | – | – | – | 8.07 | CCNC(=O)n1ccc(Cn2c(C(=O)CC)c(-c3ccccc3)c3cc(Cl)ccc3c2=O)n1 | – |
| 3.42 | – | 5.98 | 14 | 8.09 | CCC(=O)c1c(-c2ccccc2)c2cc(Cl)ccc2c(=O)n1Cc1cc(S(C)(=O)=O)n(CC(N)=O)n1 | – |
| 3.77 | 81 | 5.66 | 15 | 8.14 | CCC(=O)c1c(-c2ccccc2)c2cc(Cl)ccc2c(=O)n1Cc1cc(C(N)=O)n(C)n1 | – |
| 4.35 | 89 | 6.14 | 44 | 8.19 | CCC(=O)c1c(-c2ccccc2)c2cc(Cl)ccc2c(=O)n1Cc1cc(C(=O)NC2CC2)n(C)n1 | Tmax [6]: 2 h; Activity (Rattus norvegicus): Active; Vd [7]: 3.54 L/kg; clearance [8]: 21.4 mL/min/kg; AUC [9]: 340 ng·h/mL; AUC [10]: 234 ng·h/mL; bioavailability [11]: 15%; Cmax [12]: 47.1 ng/mL |
